Source: publication PMC9377007, “An Unexpected Deuterium-Induced Metabolic Switch in Doxophylline” (ACS Medicinal Chemistry Letters, 2022)

Columns and labels:
[1] = Levels of doxophylline metabolites in mice plasma; type: in vivo
Excerpt: From an analysis of the levels of metabolites in mice plasma, it was seen that deuteration of the dioxolane ring (d4-doxophylline) triggered considerable alterations in the relative abundances of the metabolites generated. […] This is mainly related to a marked increase of the metabolic route 2, in which the electronic influence of the two oxygen atoms adjacent to the target sp^3 carbon atom greatly facilitates oxene attack and homolytic cleavage of the C–H bond.[29]
With regard to d7-doxophylline, only a semiquantitative determination was feasible because its metabolites (with the exception of theophylline) retain deuterium atoms (see the Supporting Information for structures). Indeed, the presence of deuterium lowers the signals in the electrospray ionization source, and the corresponding deuterated standards of the metabolites would have been necessary to perform an accurate quantification. Moreover, no reference standard was available for the quantification of the metabolites dm-doxophylline 9 and dh-doxophylline 10, and their relative abundances were expressed as peak areas of the corresponding accurate-mass ions.
• Comparative pharmacokinetic study
A total of 96 CD1 male mice, approximately 6 weeks old and with a body weight of approximately 30 g, were purchased from Envigo RMS srl, (San Pietro al Natisone, UD, Italy). […]
Protocol for drug administration and blood sampling.
Blood samples were collected under light isoflurane anaesthesia from the sublingual vein at the following time points (n=3): pre-dose and 5, 15, 30 minutes, 1, 2, 4, 8 and 24 hours after i.v. dosing (20 mg/Kg, dose volume 5 mL/Kg) and pre-dose and 15, 30 minutes, 1, 2, 4, 8 and 24 hours after oral gavage dosing (80 mg/Kg, dose volume 5 mL/Kg). Each animal was sampled on each day at a maximum of two alternating time points.
Samples were transferred into tubes containing K3EDTA as anticoagulant, centrifuged, and stored at -80 °C. […] Sample preparation for HPLC-MS analysis.
A volume of 50 µL of caffeine solution (1 mg/L in water-methanol 1:1) were added to plasma sample aliquots (50 µL); after the addition of the precipitant solution (100 µL of 10% ice-cold trichloroacetic acid in water), samples were centrifuged at 13,000 rpm for ten minutes and the supernatant injected onto the HPLC system (see supporting information for chromatographic conditions). If the levels of analytes were over range, plasma samples were preventively diluted with blank plasma.
Quantification of doxophylline and its deuterated analogues d4 and d7 as well as their main metabolites, 7-theophylline acetic acid (T-COOH), 7-hydroxyethyl theophylline (Eto) and theophylline, was performed by using the calibration curves obtained with the corresponding working standards of the analytes and using caffeine as internal standard.
The pharmacokinetic parameters for doxophylline and its deuterated analogues were calculated by plotting the plasma concentration curves versus time obtained from the average values of three animals, using PK Solver

[2] = test system: P. aeruginosa-induced lung injury; experiment: Pseudomonas aeruginosa-induced lung injury model; type: in vivo; details: P. aeruginosa-treated mice; for MPO activity in lungs / apoptosis in lung tissue, TUNEL assay / collagen deposition (Masson's trichrome) / histological examination by H&E staining / immunohistochemistry of PAR / immunohistochemistry of nitrotyrosine / total BAL cellularity: 80 mg/kg os daily for 7 days; for lung edema, ratio of wet to dry weight of lung tissue: 80 mg/kg os daily, day 7, versus vehicle
Procedure: Lung edema at day 7 was measured as a ratio of wet to dry weight of excised lung tissue (Figure 7c).
Figure 7 Model of pulmonary fibrosis induced by P. aeruginosa. (a) Representative scheme of P. aeruginosa-induced lung injury model. (b) Total BAL cellularity of sham and Pseudomonas-treated mice (treated or not with 80 mg/kg doxophylline, d4-doxophylline, or d7-doxophylline). Results are reported as mean ± SEM of 10 mice for all groups. (c) Wet/dry lung weight ratio of sham and Pseudomonas-treated mice (treated or not with 80 mg/kg doxophylline, d4-doxophylline, or d7-doxophylline). Results are reported as mean ± SEM of 10 mice for all groups. (d) MPO activity in lungs of sham and Pseudomonas-treated mice (treated or not with 80 mg/kg doxophylline, d4-doxophylline, or d7-doxophylline). Results are reported as mean ± SEM of 10 mice for all groups. (e) Representative images of H&E staining of sham and Pseudomonas-treated mice (treated or not with 80 mg/doxophylline, d4-doxophylline, or d7-doxophylline). (f) Representative images of Masson’s trichrome staining of sham and Pseudomonas-treated mice (treated or not with 80 mg/doxophylline, d4-doxophylline and d7-doxophylline). p values: *, p < 0.05; **, p < 0.01; ***, p < 0.001; ****, p < 0.0001. […]
experiments were performed following the new regulations of USA (Animal Welfare Assurance No A5594 - 01), Europe (EU Directive 2010/63) , Italy (D.Lgs 2014/26) and the ARRIVE guidelines.
Tryptic soya agar beads laden with PA were produced as described. The mucoid PA strain NH57388A, was utilized. NH57388A-laden agar beads were prepared the day before inoculation, stored overnight at 4 °C, suspended in sterile PBS to deliver approximately 1 Å~ 106 CFU in 50 μ l per mouse. The inoculation dose […]
Trans-tracheal instillation of beads.
Mice were anaesthetized with inhaled isoflurane delivered initially in an anaesthetic box until unconscious, transferred to a surgical board and maintained under anesthesia with isoflurane via nose cone. The ventral cervical region was sterilized and 1-cm midline skin incision made just cranial to the thoracic inlet. The trachea was visualized by blunt dissection. Traction on the lower jaw was used to extend and straighten the trachea and a 22G intravenous catheter (BD Biosciences) used to cannulate the trachea. A 1-ml syringe, pre-filled with beads suspended in PBS, was attached to the cannuale. The cannulae and syringe were left in-situ for 5-seconds following depression of the plunger, followed by slow withdrawal. The animal was elevated head up to 45- […]
intrapulmonary bead instillation. If evidence of respiratory distress (rapid or labored respiration/ gasping) occurred during the procedure anesthesia was rapidly reversed and oxygen alone administered via nose cone.
The incision was closed with surgical staples. Buprenorphine analgesia was administered subcutaneously post-operatively. Animals were weighed and scored clinically daily. Experiments were terminated at 2-weeks post-inoculation via anesthetic overdose.
Mice were randomly allocated into the following groups. PSEUDOMONAS group: mice were subjected to pseudomonas-induced lung injury (n = 10); PSEUDOMONAS group + doxophylline: Identical to the pseudomonas + vehicle group but were treated daily with doxophylline xo (80 mg/kg os) 1 h after pseudomonas instillation and continued daily for 7 days (n = 10); PSEUDOMONAS group + d4- doxophylline:
Identical to the pseudomonas + vehicle group but were treated daily with doxophylline deuterated d4 (80 mg/kg os) 1 h after pseudomonas instillation and continued daily for 7 days ( n = 10); PSEUDOMONAS group + d7- doxophylline: Identical to the pseudomonas + vehicle group but were treated daily with doxophylline deuterated d7 (80 mg/kg os) 1 h after pseudomonas instillation and continued daily for 7 days (n = 10); SHAM group: mice will receive the vehicle administration daily for 7 days ([…]); SHAM + doxophylline group: […]

[2H]C1([2H])OC(Cn2cnc3c2c(=O)n(C)c(=O)n3C)OC1([2H])[2H] [d4-doxophylline]
level of metabolite etophylline 7 versus doxophylline [1]: decreased level
plasmatic level of metabolite theophylline 1 versus doxophylline [1]: significant increase
level of dehydrogenated metabolite dh-doxophylline 10 versus doxophylline ([1]; peak area): decrease
plasmatic level of metabolite dm-doxophylline 9 versus doxophylline ([1]; peak area): significant increase
MPO activity in lungs [2]: lesser nonsignificant effect
apoptosis in lung tissue, TUNEL assay [2]: did not have any effect
collagen deposition (Masson's trichrome) [2]: lesser or no effect
histological examination by H&E staining [2]: reduction of the inflammatory interstitial infiltrate
immunohistochemistry of PAR [2]: lesser or no effect
immunohistochemistry of nitrotyrosine [2]: lesser or no effect
total BAL cellularity [2]: increased total BAL cellularity

Cn1c(=O)c2c(ncn2CC2OCCO2)n(C)c1=O [doxophylline]
MPO activity in lungs [2]: significantly reduced
apoptosis in lung tissue, TUNEL assay [2]: reverted
collagen deposition (Masson's trichrome) [2]: effect
histological examination by H&E staining [2]: reduction of the inflammatory interstitial infiltrate
immunohistochemistry of PAR [2]: effect
immunohistochemistry of nitrotyrosine [2]: effect
total BAL cellularity [2]: significantly reduced
lung edema, ratio of wet to dry weight of lung tissue [2]: considerably decreased

[2H]C1([2H])OC([2H])(C([2H])([2H])n2cnc3c2c(=O)n(C)c(=O)n3C)OC1([2H])[2H] [d7-doxophylline]
levels of all metabolites except dm-doxophylline 9 versus doxophylline ([1]; semiquantitative determination): diminished levels
MPO activity in lungs [2]: significantly reduced
apoptosis in lung tissue, TUNEL assay [2]: reverted
collagen deposition (Masson's trichrome) [2]: effect
histological examination by H&E staining [2]: reduction of the inflammatory interstitial infiltrate
immunohistochemistry of PAR [2]: effect
immunohistochemistry of nitrotyrosine [2]: effect
total BAL cellularity [2]: significantly reduced
lung edema, ratio of wet to dry weight of lung tissue [2]: considerably decreased
